pIC50: −log10 of the molar value. Where a name gives a salt, the structure may show the parent alone.
system: not given; test: not given; details: not given

`CN1N(CCC(C)(C)C)C(=O)C(C2=NS(=O)(=O)c3cc(NS(C)(=O)=O)ccc3N2)=C(O)C12CCCC2` (as salt: trifluoroacetic acid salt) [Example 5, N-{3-[7-(3,3-Dimethyl-butyl)-10-hydroxy-6-methyl-8-oxo-6,7-diaza-spiro[4.5]dec-9-en-9-yl]-1,1-dioxo-1,4-dihydro-1λ^6-benzo[1,2,4]thiadiazin-7-yl}-methanesulfonamide] gave a melting point of 203.8 to 205.7 °C.

molecular target: NS5B polymerase (Hepatitis C virus genotype 1b, UniProt P26663); test: biochemical; details: NS5B polymerase inhibition; 20 nM enzyme, 75 min at 28° C.
Method: Compounds were tested for HCV polymerase inhibition. Assays were performed in a 96-well streptavidin-coated FlashPlate using 20 nM enzyme, 0.5 μCi of [α-^33P]GTP, 0.6 μM GTP, and 250 nM 5′biotinylated oligo (rG13)/poly rC in 20 mM Tris-HCl, pH 7.5, 5 mM MgCl2, 5 mM dithiothreitol, 0.1 g/L bovine serum albumin, and 100 U/mL RNAse inhibitor. The reaction was stopped by aspiration after 75 min at 28° C. and the plate was washed several times. After washing and drying the plate, incorporated radioactivity was counted using a Microbeta scintillation counter. IC50 values were calculated relative to the uninhibited control and inhibition data were fitted to a 4-parameter IC50 equation.

NS5B polymerase, sequence (P26663 2420-3010): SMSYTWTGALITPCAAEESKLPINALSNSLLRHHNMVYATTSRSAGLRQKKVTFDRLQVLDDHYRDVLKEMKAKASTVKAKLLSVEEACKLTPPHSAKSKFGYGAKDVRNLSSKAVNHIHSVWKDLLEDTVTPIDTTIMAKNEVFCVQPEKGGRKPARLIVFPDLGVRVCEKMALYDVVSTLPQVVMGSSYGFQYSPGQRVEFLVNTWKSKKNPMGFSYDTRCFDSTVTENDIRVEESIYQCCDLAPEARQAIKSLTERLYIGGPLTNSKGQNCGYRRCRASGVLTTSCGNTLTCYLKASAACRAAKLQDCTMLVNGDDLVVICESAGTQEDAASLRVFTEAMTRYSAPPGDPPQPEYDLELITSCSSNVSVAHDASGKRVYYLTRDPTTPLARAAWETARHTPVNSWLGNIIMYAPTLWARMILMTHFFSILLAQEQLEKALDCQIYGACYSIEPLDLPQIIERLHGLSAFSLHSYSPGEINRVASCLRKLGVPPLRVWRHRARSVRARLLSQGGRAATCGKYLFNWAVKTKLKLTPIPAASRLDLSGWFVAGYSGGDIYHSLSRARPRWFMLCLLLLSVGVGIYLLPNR

`CS(=O)(=O)Nc1ccc2c(c1)S(=O)(=O)N=C(C1=C(O)C3CCCN3N(Cc3ccc(F)cc3)C1=O)N2` (stereo not drawn) [Example 7, N-{3-[1-(4-Fluoro-benzyl)-4-hydroxy-2-oxo-1,2,4a,5,6,7-hexahydro-pyrrolo[1,2-b]pyridazin-3-yl]-1,1-dioxo-1,4-dihydro-1λ^6-benzo[1,2,4]thiadiazin-7-yl}-methanesulfonamide] and `CS(=O)(=O)Nc1ccc2c(c1)S(=O)(=O)N=C(C1=C(O)C3CCCCN3N(Cc3ccc(F)cc3)C1=O)N2` (stereo not drawn) [Example 1, N-{3-[1-(4-Fluoro-benzyl)-4-hydroxy-2-oxo-2,4a,5,6,7,8-hexahydro-1H-pyrido[1,2-b]pyridazin-3-yl]-1,1-dioxo-1,4-dihydro-1λ^6-benzo[1,2,4]thiadiazin-7-yl}-methanesulfonamide] cannot be ordered by pIC50: > 7.70 for the first, > 7.70 for the second.

Compared with `CN1N(CCC(C)(C)C)C(=O)C(C2=NS(=O)(=O)c3cc(NS(C)(=O)=O)ccc3N2)=C(O)C12CCCC2` [Example 5, N-{3-[7-(3,3-Dimethyl-butyl)-10-hydroxy-6-methyl-8-oxo-6,7-diaza-spiro[4.5]dec-9-en-9-yl]-1,1-dioxo-1,4-dihydro-1λ^6-benzo[1,2,4]thiadiazin-7-yl}-methanesulfonamide], `CC(C)(C)CCN1C(=O)C(C2=NS(=O)(=O)c3cc(NS(C)(=O)=O)ccc3N2)=C(O)C2(C)CCCN12` (stereo not drawn) [Example 4, N-{3-[1-(3,3-Dimethyl-butyl)-4-hydroxy-4a-methyl-2-oxo-1,2,4a,5,6,7-hexahydro-pyrrolo[1,2-b]pyridazin-3-yl]-1,1-dioxo-1,4-dihydro-1λ^6-benzo[1,2,4]thiadiazin-7-yl}-methanesulfonamide] is higher in pIC50: 5.52 to 6.70 for the first, 6.70 to 7.70 for the second. The second is the more potent here.

`CC(C)CCN1C(=O)C(C2=NS(=O)(=O)c3cc(NS(C)(=O)=O)ccc3N2)=C(O)C2CCCN21` (stereo not drawn) [Example 6, N-{3-[4-Hydroxy-1-(3-methyl-butyl)-2-oxo-1,2,4a,5,6,7-hexahydro-pyrrolo[1,2-b]pyridazin-3-yl]-1,1-dioxo-1,4-dihydro-1λ^6-benzo[1,2,4]thiadiazin-7-yl}-methanesulfonamide] and `CC(C)(C)CCN1C(=O)C(C2=NS(=O)(=O)c3cc(NS(C)(=O)=O)ccc3N2)=C(O)C2CCCN21` (stereo not drawn) [Example 3, N-{3-[1-(3,3-Dimethyl-butyl)-4-hydroxy-2-oxo-1,2,4a,5,6,7-hexahydro-pyrrolo[1,2-b]pyridazin-3-yl]-1,1-dioxo-1,4-dihydro-1λ^6-benzo[1,2,4]thiadiazin-7-yl}-methanesulfonamide] cannot be ordered by pIC50: > 7.70 for the first, > 7.70 for the second.

Compared with `CS(=O)(=O)Nc1ccc2c(c1)S(=O)(=O)N=C(C1=C(O)[C@]34C[C@H]3CCN4N(Cc3ccc(F)cc3)C1=O)N2` [Example 12, (1aR,7aS)-N-{3-[4-(4-Fluoro-benzyl)-7-hydroxy-5-oxo-1,1a,2,3,4,5-hexahydro-3a,4-diaza-cyclopropa[c]inden-6-yl]-1,1-dioxo-1,4-dihydro-1λ^6-benzo[1,2,4]thiadiazin-7-yl}-methanesulfonamide], `CS(=O)(=O)Nc1ccc2c(c1)S(=O)(=O)N=C(C1=C(O)C3C4CCC(C4)N3N(Cc3ccc(F)cc3)C1=O)N2` (stereo not drawn) [Example 9, N-{3-[3-(4-Fluoro-benzyl)-6-hydroxy-4-oxo-2,3-diaza-tricyclo[6.2.1.0^2,7]undec-5-en-5-yl]-1,1-dioxo-1,4-dihydro-1λ^6-benzo[1,2,4]thiadiazin-7-yl}-methanesulfonamide] is higher in pIC50: 6.70 to 7.70 for the first, > 7.70 for the second. The second is the more potent here.

Compared with `CS(=O)(=O)Nc1ccc2c(c1)S(=O)(=O)N=C(C1=C(O)C3CC4CCCC4N3N(C3CCCCC3)C1=O)N2` (single isomer, unassigned) [10 Isomer 1], `CS(=O)(=O)Nc1ccc2c(c1)S(=O)(=O)N=C(C1=C(O)[C@@H]3C4CCC(CC4)N3N(Cc3ccc(F)cc3)C1=O)N2` [Example 11, (7S)-N-{3-[3-(4-Fluoro-benzyl)-6-hydroxy-4-oxo-2,3-diaza-tricyclo[6.2.2.0^2,7]dodec-5-en-5-yl]-1,1-dioxo-1,4-dihydro-1λ^6-benzo[1,2,4]thiadiazin-7-yl}-methanesulfonamide] is higher in pIC50: 5.52 to 6.70 for the first, 6.70 to 7.70 for the second.

Compound `CC(C)(C)CCN1C(=O)C(C2=NS(=O)(=O)c3cc(NS(C)(=O)=O)ccc3N2)=C(O)C2CCCCN21` (stereo not drawn) [Example 2, N-{3-[1-(3,3-Dimethyl-butyl)-4-hydroxy-2-oxo-2,4a,5,6,7,8-hexahydro-1H-pyrido[1,2-b]pyridazin-3-yl]-1,1-dioxo-1,4-dihydro-1λ^6-benzo[1,2,4]thiadiazin-7-yl}-methanesulfonamide] has a pIC50 of 6.70 to 7.70.
